Data from patent US7575909B2, “Oxidoreductase from pichia capsulata” (IEP GmbH, priority 2003, dated 2009).

Tests used:
[1] = system: oxidoreductase according to the invention; assay: Substrate spectrum (relative enzyme activity with different substrates); type: biochemical, Pichia capsulata; details: activity with ethyl-4-chloroacetoacetate = 100%
Description: Incubation lasted for about 2 to 3 min, thereupon 100 μl of a substrate solution (100 mM ethyl-4-chloro-3-oxobutanoate were added.
The substrate spectrum of the oxidoreductase according to the invention was determined by measuring the enzyme activity with a number of ketones, oxoacids and esters thereof. […] The activity with ethyl-4-chloroacetoacetate was equalled to 100% and all the other substrates were set in relation thereto.

[2] = system: oxidoreductase according to the invention; assay: Enantiomeric excess of the alcohol formed from selected substrates (GC); type: biochemical, Pichia capsulata; details: 24 h
Description: For the determination of the ee-value, the following reaction batch was used for selected substrates.
The batches for ee-determination were extracted with chloroform after 24 h and the enantiomeric excess of the resulting alcohol was determined via GC.

[3] = system: recombinant oxidoreductase from Pichia capsulata; assay: Preparative conversions with recombinant oxidoreductase; type: biochemical; details: for enantiomeric excess of the recovered product: preparative batch, 24 h at room temperature; for share of the substrate used that was reduced: after 24 h at room temperature, isopropanol as cosubstrate, NAD
Description: For the preparative batch, a mixture of […] of a buffer (100 mM TEA, pH=7, 1 mM ZnCl2, 10% glycerol), 4 1 isopropanol, 4 1 4-chloroacetoacetate, 4 g NAD and 3.6 million U of recombinant oxidoreductase from Pichia capsulata was incubated for 24 h at room temperature under constant mixing. […] Subsequently, the reaction mixture was extracted with ethyl acetate, the solvent was removed by means of a rotary evaporator and the raw product was distilled.
For the preparative batch, a mixture of 164 ml of a buffer (100 mM TEA, pH=7, 1 mM ZnCl2, 20% glycerol), 16 ml isopropanol, 20 g 2-chloro-1-(3-chlorophenyl)ethane-1-one dissolved in 20 ml methyl tert-butyl ether (MTBE), 10 mg NAD and 20,000 U of recombinant oxidoreductase from Pichia capsulata was incubated for 24 h at room temperature under constant mixing. […] Subsequently, the reaction mixture was extracted with ethyl acetate, and the solvent was removed using the rotary evaporator.

| Compound | Relative activity % [1] [%] | Stereoselectivity ([2]; S-alcohol in excess) [% S] | other results |
| --- | --- | --- | --- |
| CC(=O)Cc1ccccc1 [1-Phenyl-2-propanone] | 24 | 97 | – |
| CCC(C)=O [2-Butanone] | 99 | 50 | – |
| CCCC(=O)C(=O)OCC [Ethyl-2-oxovaleriate] | 41 | 97 | – |
| CCOC(=O)C(=O)c1ccccc1 [Ethyl phenyl glyoxylate] | 5.2 | – | Stereoselectivity ([2]; R-alcohol in excess): 100% R |
| CC(=O)c1ccccc1 [Acetophenone] | 4 | – | – |
| CCCCCC(=O)CC [3-Octanone] | 30 | – | – |
| CCOC(=O)C[C@@H](O)CCl [ethyl-(R)-4-chloro-3-hydroxybutanoate] | – | – | enantiomeric excess of the recovered product [3]: 99% |
| O=C(O)C(=O)Cc1ccccc1 [2-Oxo-3-phenyl propionic acid] | 0 | – | – |
| CCOC(=O)CCCCC(=O)CCCl [Ethyl-8-chloro-6-oxooctanoic acid] | 20 | – | Stereoselectivity ([2]; R-alcohol in excess): 100% R |
| COC(=O)CCCCC(=O)CC(=O)OC [Dimethyl-3-oxo-1,8-octandioic acid] | 3.5 | – | – |
| CCOC(=O)CC(=O)CCl [Ethyl-4-chloroacetoacetate] | 100 | – | Stereoselectivity ([2]; R-alcohol in excess): 99% R; share of the substrate used that was reduced [3]: 99% |
| CCOC(=O)CC(=O)CC [Ethyl-3 oxovaleriate] | 67 | – | – |
| CCCCCCCC(=O)c1ccccc1 [Caprylophenone] | 0 | – | – |
| CCCC(=O)C(=O)O [2-Oxovaleric acid] | 0 | – | – |
| O=C(CCl)c1cccc(Cl)c1 [2-Chloro-1-(3-chlorophenyl)ethane-1-one] | 21 | – | Stereoselectivity ([2]; R-alcohol in excess): 100% R; share of the substrate used that was reduced [3]: 96% |
| CCC(=O)C(=O)O [2-Oxobutanoic acid] | 0 | – | – |
| CCCCCCC(C)=O [2-Octanone] | 88 | 100 | – |
| CCOC(=O)C(=O)CCc1ccccc1 [Ethyl-2-oxo-4-phenylbutanoic acid] | 76 | 95 | – |
| O[C@@H](CCl)c1cccc(Cl)c1 [(R)-2-chloro-1-(3-chlorophenyl)ethane-1-ol] | – | – | enantiomeric excess of the recovered product [3]: 100% |
| CCOC(=O)C(C)=O [Ethyl pyruvate] | 10 | 100 | – |
| COC(=O)CC(C)=O [Methyl acetoacetate] | 150 | 97 | – |
| CC(=O)CCO [4-Hydroxy-2-butanone] | 99 | 90 | – |
| CCOC(=O)CC(C)=O [Ethyl acetoacetate] | 100 | 99 | – |
